A short description of series [1]: Metabolite in female mouse liver microsomes. It counts as in vitro ADME.
Series [2] in a line: Membrane flux experiment (donor/receiver compartments, SIF bile salts). The conditions noted are these: amorphous suspension as donor compartment contents.
Protocol: A membrane flux experiment was conducted in which a fixed amount of compound was introduced into the donor compartment at various concentrations of the SIF bile salts, and appearance of drug was monitored on the receiver side.
Series [3] can be described thus: 90-minute non-sink dissolution, pH 2 HCl shifted to pH 6.5 SIF. It counts as physicochemical. The conditions noted are these: 1 mg/mL in pH 2 HCl, shift to pH 6.5 SIF at 30 minutes. The procedure:
FIG. 11 is a series of line graphs showing the dissolution of crystalline vs. amorphous Compound A API. API (1 mg/mL) is present in gastric conditions (pH=2), which is 2× diluted with FaSSIF at 30 minutes to increase the pH to 6.5. (API=active pharmaceutical ingredient; FaSSIF=fasted state simulated intestinal fluid.)
FIG. 12 is a series of line graphs showing the non-sink dissolution of spray-dried amorphous Compound A produced at multiple scales. API (500 μg/mL) is present in gastric conditions (pH=2), which is 2× Diluted with FaSSIF at 30 minutes to increase the pH to 6.5.
A 90-minute non-sink dissolution experiment was conducted in which a Compound A suspension was introduced into pH 2 HCl at a final concentration of 1 mg/mL, which was then periodically sampled and prepared for analysis via centrifugation. A shift to pH 6.5 SIF was carried out 30 minutes into the experiment.

Series [4] in a line: Stability of amorphous Compound A (spray-dried intermediate). It counts as physicochemical. The procedure: The stability of amorphous Compound A was assessed at three stability conditions: 2-8° C.; 25° C./60% RH; and 40° C./75% RH for a period of 12 months.
During stability testing, amorphous Compound A was stored in wire-tied low-density polyethylene bags placed in heat-induction sealed, high-density polyethylene (HDPE) bottles containing a desiccant canister, and capped with polypropylene-lined closures.

Series [5] is described as follows: Rat pharmacokinetic studies with solutions and spray-dried dispersions. The conditions noted are these: male, rat, in vivo, po, 150 mg/kg.
Series [6] can be described thus: Glass transition and recrystallization temperature of amorphous solids. It counts as physicochemical. The procedure:
Thus, while crystals of Compound A are quite stable, there is a significant barrier to transforming to a crystalline state from an amorphous form. Indeed, a ramped temperature increase of a partially-crystalline sample does eventually lead to a recrystallization event, but not until a temperature of 200-220° C. is achieved. […] As discussed below, this robust resistance to crystallization is preserved even in the presence of water.
The amorphous form of pure Compound A is robust with a high Tg and even higher recrystallization temperature. The glass transition temperature does decrease under the plasticizing conditions of high humidity. However, the value is still well above the commonly applied 40-50° C. difference between Tg and any temperature the clinical presentation will encounter.

The nature of series [7]: Metabolite in liver microsomes and hepatocytes. It counts as in vitro ADME. The conditions noted are these: male human, monkey, dog, rat, and mouse liver microsomes and hepatocytes.
The mark [8] stands for this setting: after 6 months of storage at 2-8° C.
[9] abbreviates: after 12 months at 25° C./60% RH.
Where [10] appears, read: after 12 months at 40° C./75% RH.

`N#Cc1ccc(O[C@H]2CC[C@H](NC(=O)c3ccc(N4CCC(CO)CC4)nn3)CC2)cc1Cl` [Intermediate 2, N-((1r,4r)-4-(3-chloro-4-cyanophenoxy)cyclohexyl)-6-(4-(hydroxymethyl)piperidin-1-yl)pyridazine-3-carboxamide]: in series [1], the occurrence as metabolite entry was “A process impurity in Intermediate 3 and can be formed as a by-product of the reductive amination in Step 3. This impurity is also a metabolite in female mouse liver microsomes”.

For `N#Cc1ccc(O[C@H]2CC[C@H](NC(=O)c3ccc(N4CCC(CN5CCN(c6cc7c(cc6F)C(=O)N(C6CCC(=O)NC6=O)C7=O)CC5)CC4)nn3)CC2)cc1Cl` (some centres unmarked) [Spray-Dried Amorphous Compound A], the “Flux (μg-min^−1-cm^−2)” value in series [2] was 0.15 μg-min^−1-cm^−2. For the same compound, in series [3], the “non-sink dissolution, amorphous vs crystalline (FIG. 11)” value is “Higher concentrations are achieved in the gastric phase of the experiment and sustained in the intestinal phase”. Also, the purity is on record as 95.7% in series [4] (setting [8]), 97.7% in series [4] (setting [9]) and 98% in series [4] (setting [10]). The results for the “water (major impurity)” value in series [4] (setting [8]) and in series [4] (setting [9]) were 0.9% and 1.62%, respectively. For the same compound, the “water (major impurity), Karl Fischer titration” value in series [4] (setting [10]) is listed as 2.16%. The “recrystallization of the amorphous form” value in series [4] (all three storage conditions, any time during the studies) was “no evidence of recrystallization”. This compound returned an AUC in series [5] of 19400 ng·h/mL. Further, the entries for the “Glass Transition Temperature” value in series [6] (Temperature/RH 25/0 (° C./%)) and in series [6] (Temperature/RH 40/75 (° C./%)) were 146 °C and 103 °C, respectively.

Regarding `N#Cc1ccc(O[C@H]2CC[C@H](NC(=O)c3ccc(N4CCC(C(=O)O)CC4)nn3)CC2)cc1Cl` [Impurity 1], the occurrence as metabolite entry in series [7] was “A process impurity resulting from over oxidation of Intermediate 2 in Step 2. This impurity is also a metabolite in male human, monkey, dog, rat, and mouse liver microsomes and hepatocytes”.

These data come from patent US12043612B2, “Methods of manufacturing a bifunctional compound, ultrapure forms of the bifunctional compound, and dosage forms comprising the same” (Arvinas Operations, Inc., priority 2020, dated 2024).
